Results from patent US20080220056A1, “Treatment for liver disease” (UNIVERSITY OF SOUTHAMPTON, priority 2002, published 2008).

Assays:
Assay type in all cases: cell-based
[1] = tested on: caspase 3 activity in rat hepatic stellate cells; test: Caspase 3 (Ac-DEVD-pNA cleavage) activity in rat hepatic stellate cells; conditions: 1.5 μmol/L, three hours, versus DMSO control
Experimental: Hepatic stellate cells cultured in 100 mm diameter dishes (Greiner, Frickenhausen, Germany) were harvested and pelleted by centrifugation. The medium supernatant was discarded and the cell pellet was washed in 1 mL of ice-cooled phosphate buffered saline (PBS). Caspase 3 (DEVDase) activity was determined using a colorimetric CaspACE kit (Promega, Southampton, England) using the manufacturer's instructions.
Caspase 3 (Ac-DEVD-pNA cleavage) activity was then examined in control and gliotoxin-treated hepatic stellate cells. Culture activated rat hepatic stellate cells (14 days) in 100 mm diameter plates were treated with 0.05% (vol/vol) DMSO, 1.5 μmol/L gliotoxin, 20 μmol/L Z-VAD-FMK or 200 μmol/L chlorpromazine for three hours. The cells were then harvested for examination of caspase 3 activity as outlined in the materials and methods sections.

[2] = tested on: rat hepatic stellate cells; test: Low molecular weight DNA fragmentation (nucleosomal ladder) in rat hepatic stellate cells; conditions: rat HSC; 1.5 μmol/L; up to four hours
Experimental: (§1) Hepatic stellate cells cultured in 35-mm diameter dishes (Greiner) were harvested, pelleted by centrifugation and DNA fragmentation determined as outlined elsewhere (Elsharkawy et al., Hepatology (1999) 30:761-769). Propidium Iodide Flow-Activated Cell Sorting Analysis Detached cells were pelleted by centrifugation, washed in PBS, and resuspended in HYPO buffer (0.1% wt/vol) Na3Citrate and 0.1% (wt/vol) Triton™ X-100 containing […] propidium iodide and incubated for 1 hour. The cells were then analyzed by fluorescence-activated cell sorter (FACS) with a Becton Dickinson (San Jose, Calif.) FACScan instrument using a 488 nm excitation wavelength with a band pass filter set at 530 nm. Attached cells were scraped in HYPO buffer after washing cells with PBS.
The effect of gliotoxin on the cleavage of DNA to a nucleosomal ladder was examined because this phenomenon is characteristic of apoptosis. Culture activated (14-day) rat hepatic stellate cells in six well plates were treated with either 0.05% (vol/vol) DMSO for four hours or 1.5 μmol/L gliotoxin for zero hours, half an hour, one hour, two hours or four hours. At each time point, both detached and attached cells were harvested together and low molecular weight DNA (20,000 g supernatant) fragmentation determined as outlined in the materials and methods section. At least three separate experiments were performed. 1 kilobase DNA ladder (Promega) was used as a molecular weight marker.
The effect of various compounds on DNA laddering was then determined. Culture-activated (14-day) rat hepatic stellate cells in six-well plates were treated with:
After fours hours of treatment, DNA fragmentation was determined.
Culture activated (14 day) rat hepatic stellate cells in six well plates were treated with: • (a) 0.05% (vol/vol) DMSO; • (b) 1.5 μmol/L gliotoxin; • (c) 1.5 μmol/L gliotoxin with 100 μmol/L tamoxifen; • (d) 1.5 μmol/L gliotoxin with […] actinomycin d; • (e) 1.5 μmol/L gliotoxin with 10 μmol/L cycloheximide; • (f) 1.5 μmol/L gliotoxin with 10 μmol/L cyclosporin; • (g) 1.5 μmol/L gliotoxin with […] m-iodobenzylguanidine; • (h) 1.5 μmol/L gliotoxin with 50 μmol/L quin-2-am; • (i) 50 μmol/L guin-2-am alone; • (j) 250 μmol/L m-iodobenzylguanidine; • (k) 10 μmol/L cyclosporin; • (l) 10 μmol/L cycloheximide; • (m) 1 μg/ml actinomycin d; or • (n) 100 μmol/L tamoxifen.
After four hours of treatment, DNA fragmentation was determined as outlined in Materials and Methods.

[3] = tested on: rat hepatic stellate cells; test: Propidium iodide FACS analysis of DNA strand breaks in rat hepatic stellate cells; conditions: 1.5 μmol/L gliotoxin, two hours
Experimental: as §1
To characterize the extent and significance of apoptosis in response to gliotoxin, rat hepatic stellate cell DNA strand breaks were assessed by FACS analysis of propidium iodide stained cells. Culture-activated (14-day) rat hepatic stellate cells were treated with 0.05% (vol/vol) DMSO vehicle control or with 1.5 lμmol/L gliotoxin for two hours, harvested, and stained with propidium iodide as outlined in the materials and methods section.

[4] = tested on: human hepatic stellate cells; test: Hepatic stellate cell apoptosis by acridine orange staining and counting (cycloheximide or serum deprivation), human cells; conditions: human hepatic stellate cells
Experimental: Human hepatic stellate cells were extracted from the margins of normal human liver resected for colonic metastatic disease as previously described (Iredale et al., Clin. Sci., (1995) 89: 75-81). Rat hepatic stellate cells were extracted from normal rat liver by Pronase and collagenase digestion and purified by centrifugal elutriation as described (Arthur et al., J. Clin. Invest., (1989) 84:1076-1085). Extracted hepatic stellate cells were cultured on plastic until they were activated to a myofibroblastic phenotype after 7 to 10 days. Human and rat hepatic stellate cells were used for experiments after activation in primary culture or before fourth passage. Cells were cultured in Dulbecco's modified Eagle's medium in the presence of 16% fetal calf serum and antibiotics.
Apoptosis of hepatic stellate cells was induced by absolute serum deprivation, cycloheximide treatment (Issa et al., Gut (2001) 48: S48-S57), or exposure to nerve growth factor as previously described (Trim et al., Am. J. Pathol., (2000) 156, 1235-1243). Hepatic stellate cells were cultured in 24-well tissue culture plates. […] Following a 4 hour incubation at 37° C., nuclear morphology was assessed by adding acridine orange to each well (final concentration 1 μg/ml) and observing the cells under blue fluorescence. The total number of apoptotic bodies was counted, and any apoptotic bodies floating in the supernatant were included by racking up the objective lens. The total number of cells per field was counted, and an apoptotic index was calculated. Each condition was performed in duplicate, and three high power fields were counted for each well. […] To examine for autocrine effects, hepatic stellate cells were incubated for 18 hours with azide-free polyclonal neutralizing antibodies to TIMP-1 and a nonimmune IgG control (Santa Cruz Biotechnology, Inc., Santa Cruz, Calif.), and responses were assessed by acridine orange staining and counting.
Apoptosis was assessed by acridine orange staining. […]

hepatic stellate cells = test: Nerve growth factor induced apoptosis of hepatic stellate cells; conditions: NGF 100 ng/ml, serum-free; TIMP-1 142.5 ng/ml
Experimental: Apoptosis of hepatic stellate cells was induced by absolute serum deprivation, cycloheximide treatment (Issa et al., Gut (2001) 48: S48-S57), or exposure to nerve growth factor as previously described (Trim et al., Am. J. Pathol., (2000) 156, 1235-1243). Hepatic stellate cells were cultured in 24-well tissue culture plates. Rat and human hepatic stellate cells were exposed to proapoptotic stimuli with and without recombinant TIMP-1 (Biogenesis, Poole, UK) and other manipulations as detailed below. Following a 4 hour incubation at 37° C., nuclear morphology was assessed by adding acridine orange to each well (final concentration 1 μg/ml) and observing the cells under blue fluorescence. The total number of apoptotic bodies was counted, and any apoptotic bodies floating in the supernatant were included by racking up the objective lens. The total number of cells per field was counted, and an apoptotic index was calculated. Each condition was performed in duplicate, and three high power fields were counted for each well. […] To examine for autocrine effects, hepatic stellate cells were incubated for 18 hours with azide-free polyclonal neutralizing antibodies to TIMP-1 and a nonimmune IgG control (Santa Cruz Biotechnology, Inc., Santa Cruz, Calif.), and responses were assessed by acridine orange staining and counting. […]

CN1C(=O)[C@]23CC4=CC=C[C@H](O)[C@H]4N2C(=O)[C@@]1(CO)SS3 [gliotoxin]
increase in caspase 3 activity [1]: 7.6 fold
cleavage of DNA to a nucleosomal ladder [2]: time dependent increase in DNA cleavage to a nucleosomal ladder
propidium iodide nuclei fluorescence (DNA cleavage) [3]: broad low level of fluorescence

TIMP-1: recombinant tissue inhibitor of matrix metalloproteases 1 (Biogenesis)
apoptosis of human HSC (cycloheximide 4 h or serum deprivation 18 h) [4]: identical antiapoptotic effects
apoptosis induced by exposure to NGF (hepatic stellate cells): significantly inhibited
